Results published in ChEMBL document CHEMBL2407040, “Discovery and optimization of 7-aminofuro[2,3-c]pyridine inhibitors of TAK1” (Bioorg Med Chem Lett, 2013).

Legend:
[1] = target: T1, Mitogen-activated protein kinase kinase kinase 7 (Homo sapiens, UniProt O43318); experiment: Inhibition of TAK1 in human HCT116 cells assessed as inhibition of TNF-alpha-stimulated JNK phosphorylation; assay type: cell-based, HCT-116
T1 sequence (O43318 whole entry): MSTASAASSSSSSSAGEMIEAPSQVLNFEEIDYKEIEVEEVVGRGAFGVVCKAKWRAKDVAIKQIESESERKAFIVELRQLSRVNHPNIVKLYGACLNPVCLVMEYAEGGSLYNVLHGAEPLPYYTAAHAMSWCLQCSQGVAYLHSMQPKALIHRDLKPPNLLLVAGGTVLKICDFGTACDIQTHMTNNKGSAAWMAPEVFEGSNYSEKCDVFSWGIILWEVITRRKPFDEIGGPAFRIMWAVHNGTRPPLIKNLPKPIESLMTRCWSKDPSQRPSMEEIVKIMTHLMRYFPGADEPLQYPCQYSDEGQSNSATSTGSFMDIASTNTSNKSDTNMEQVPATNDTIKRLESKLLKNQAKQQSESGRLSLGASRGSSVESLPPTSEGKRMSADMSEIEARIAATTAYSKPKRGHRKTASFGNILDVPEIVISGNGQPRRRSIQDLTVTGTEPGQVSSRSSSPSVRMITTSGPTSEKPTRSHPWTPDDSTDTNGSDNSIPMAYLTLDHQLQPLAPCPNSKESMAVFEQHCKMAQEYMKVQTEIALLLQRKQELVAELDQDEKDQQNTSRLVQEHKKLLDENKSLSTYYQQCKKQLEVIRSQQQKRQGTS

[2] = target: TAK1/TAB1 (Homo sapiens, UniProt O43318); experiment: Inhibition of truncated TAK1-TAB1(unknown origin) using MKK7 as substrate by ALPHAScreen assay in presence of ATP; assay type: protein-complex assay
[3] = Clearance in mouse at 2 mg/kg, iv; assay type: ADME, organism-based; design: dose 2 mg/kg, route intravenous; conditions: in vivo
[4] = Volume of distribution at steady state in mouse at 2 mg/kg, iv; assay type: ADME, organism-based; design: dose 2 mg/kg, route intravenous; conditions: in vivo, read-out: Vdss
[5] = Half life in mouse at 2 mg/kg, iv; assay type: ADME, organism-based; design: dose 2 mg/kg, route intravenous; conditions: in vivo
[6] = Metabolic stability in mouse liver microsomes assessed as extraction ratio; assay type: ADME, Microsome; conditions: read-out: ERH
[7] = AUC (0 to infinity) in mouse at 20 mg/kg, po; assay type: ADME, organism-based; design: time infinity, dose 20 mg/kg, route oral; conditions: plasma
[8] = Metabolic stability in human liver microsomes assessed as extraction ratio; assay type: ADME, Microsome; conditions: read-out: ERH
[9] = AUC (0 to infinity) in mouse at 2 mg/kg, iv; assay type: ADME, organism-based; design: time infinity, dose 2 mg/kg, route intravenous; conditions: plasma
[10] = Cmax in mouse at 20 mg/kg, po; assay type: ADME, organism-based; design: dose 20 mg/kg, route oral; conditions: in vivo
[11] = Oral bioavailability in mouse at 20 mg/kg; assay type: ADME, organism-based; conditions: in vivo
[12] = Permeability of the compound by PAMPA; assay type: ADME; conditions: read-out: permeability

Sequence of TAK1/TAB1 (Q15750 whole entry, one chain of several, the tested form may be a part): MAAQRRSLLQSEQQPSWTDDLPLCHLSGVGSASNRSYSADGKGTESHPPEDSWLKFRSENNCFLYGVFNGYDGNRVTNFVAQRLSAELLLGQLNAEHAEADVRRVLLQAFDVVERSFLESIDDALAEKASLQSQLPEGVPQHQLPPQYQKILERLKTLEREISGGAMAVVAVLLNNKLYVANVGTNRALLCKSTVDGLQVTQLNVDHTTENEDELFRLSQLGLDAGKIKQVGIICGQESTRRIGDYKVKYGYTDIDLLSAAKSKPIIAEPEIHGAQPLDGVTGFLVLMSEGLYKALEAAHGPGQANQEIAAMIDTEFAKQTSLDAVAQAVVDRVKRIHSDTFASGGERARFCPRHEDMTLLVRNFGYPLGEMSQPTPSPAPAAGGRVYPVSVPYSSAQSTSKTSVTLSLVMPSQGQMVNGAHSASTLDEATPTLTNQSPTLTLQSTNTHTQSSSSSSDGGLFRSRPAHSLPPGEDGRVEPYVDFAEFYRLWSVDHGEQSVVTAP

| SMILES | IC50 [1] [nM] | IC50 [2] [nM] | other results |
| --- | --- | --- | --- |
| CC(=O)N1CCC(n2cc(-c3cnc(N)c4oc(-c5cccc(N(C)C)c5)cc34)cn2)CC1 | 690 | 2400 |  |
| CC(=O)N1CCC(n2cc(-c3cnc(N)c4oc(-c5ccc(OC(F)(F)F)cc5)cc34)cn2)CC1 | 8000 | 3500 |  |
| CC(=O)N1CCC(n2cc(-c3cnc(N)c4oc(-c5ccc(C#N)cc5)cc34)cn2)CC1 | 2800 | 2500 |  |
| CC(=O)N1CCC(n2cc(-c3cnc(N)c4oc(-c5ccc(C(=O)N(C)C)cc5)cc34)cn2)CC1 |  | > 30000 |  |
| CC(=O)N1CCC(n2cc(-c3cnc(N)c4oc(-c5ccc(CO)cc5)cc34)cn2)CC1 | 4400 | 2800 |  |
| CC(=O)N1CCC(n2cc(-c3cnc(N)c4oc(-c5ccc(CC#N)cc5)cc34)cn2)CC1 | 1900 | 1500 |  |
| CC(=O)N1CCC(n2cc(-c3cnc(N)c4oc(-c5cccc6cnsc56)cc34)cn2)CC1 | 44 | 23 | clearance [3]: 128 mL/min/kg; Vd [4]: 2.5 L/kg; half-life [5]: 30 min; hepatic extraction ratio [6]: 0.84; AUC(0-inf) [7]: 285 ng·h/mL; hepatic extraction ratio [8]: 0.73; AUC(0-inf) [9]: 261 ng·h/mL; Cmax [10]: 1600 nM; bioavailability [11]: 11% |
| CC(=O)N1CCC(n2cc(-c3cnc(N)c4oc(-c5cccc6ncsc56)cc34)cn2)CC1 | 10 | 13 | hepatic extraction ratio [6]: 0.68; hepatic extraction ratio [8]: 0.62 |
| CC(=O)N1CCC(n2cc(-c3cnc(N)c4oc(-c5cccc6nnsc56)cc34)cn2)CC1 | 12 | 4 | hepatic extraction ratio [6]: 0.7; hepatic extraction ratio [8]: 0.68 |
| CC(=O)N1CCC(n2cc(-c3cnc(N)c4oc(-c5csc6cnccc56)cc34)cn2)CC1 | 110 | 30 | hepatic extraction ratio [6]: 0.72; hepatic extraction ratio [8]: 0.68 |
| CC(=O)N1CCC(n2cc(-c3cnc(N)c4oc(-c5cn(C)c6cnccc56)cc34)cn2)CC1 | 340 | 18 | hepatic extraction ratio [6]: 0.91; hepatic extraction ratio [8]: 0.64 |
| CC(=O)N1CCC(n2cc(-c3cnc(N)c4oc(-c5cccc6ccccc56)cc34)cn2)CC1 | 1200 | 1000 | hepatic extraction ratio [6]: 0.77; hepatic extraction ratio [8]: 0.66 |
| CC(=O)N1CCC(n2cc(-c3cnc(N)c4oc(-c5csc6ccccc56)cc34)cn2)CC1 | 440 | 340 | hepatic extraction ratio [6]: 0.85; hepatic extraction ratio [8]: 0.68 |
| CC(=O)N1CCC(n2cc(-c3cnc(N)c4oc(-c5cnc6cnccn56)cc34)cn2)CC1 |  | 1400 | hepatic extraction ratio [6]: 0.52; hepatic extraction ratio [8]: 0 |
| Nc1ncc(-c2cnn(C3CCNCC3)c2)c2cc(-c3ccccc3)oc12 |  | 2700 | Papp [12]: < 1 ×10⁻⁶ cm/s |
| Nc1ncc(-c2cnn(C3CCNCC3)c2)c2cc(-c3cccc4ccsc34)oc12 |  | 1200 | Papp [12]: < 1 ×10⁻⁶ cm/s |
| CC(=O)N1CCC(n2cc(-c3cnc(N)c4oc(-c5cccc(C#N)c5)cc34)cn2)CC1 | 370 | 250 |  |
| CC(=O)N1CCC(n2cc(-c3cnc(N)c4oc(-c5cccc(C(F)(F)F)c5)cc34)cn2)CC1 | 1600 | 2800 |  |
| CC(=O)c1cccc(-c2cc3c(-c4cnn(C5CCN(C(C)=O)CC5)c4)cnc(N)c3o2)c1 | 1000 | 2800 |  |
| CC(=O)N1CCC(n2cc(-c3cnc(N)c4oc(-c5cccc(C(N)=O)c5)cc34)cn2)CC1 | 3100 | 530 |  |

| SMILES | IC50 [1] [nM] | IC50 [2] [nM] | other results |
| --- | --- | --- | --- |
| CC(=O)N1CCC(n2cc(-c3cnc(N)c4oc(-c5cccc(CN)c5)cc34)cn2)CC1 | 4000 | 790 |  |
| CC(=O)N1CCC(n2cc(-c3cnc(N)c4oc(-c5cccc(CO)c5)cc34)cn2)CC1 | 470 | 850 |  |
| CSc1ccc(-c2cc3c(-c4cnn(C5CCN(C(C)=O)CC5)c4)cnc(N)c3o2)cc1 | 5200 | 17500 |  |
| CC(=O)N1CCC(n2cc(-c3cnc(N)c4oc(-c5ccc(S(C)(=O)=O)cc5)cc34)cn2)CC1 | > 20000 | 25700 |  |
| CC(=O)N1CCC(n2cc(-c3cnc(N)c4oc(-c5ccc(N)cc5)cc34)cn2)CC1 | 1000 | 1800 |  |
| CC(=O)N1CCC(n2cc(-c3cnc(N)c4oc(-c5ccc(NS(C)(=O)=O)cc5)cc34)cn2)CC1 |  | 4900 |  |
| CC(=O)N1CCC(n2cc(-c3cnc(N)c4oc(-c5ccc(O)cc5)cc34)cn2)CC1 | 500 | 270 |  |
| CC(=O)N1CCC(n2cc(-c3cnc(N)c4oc(-c5cnsc5)cc34)cn2)CC1 |  | 880 |  |
| CSc1ccccc1-c1cc2c(-c3cnn(C4CCN(C(C)=O)CC4)c3)cnc(N)c2o1 | 500 | 430 |  |
| CC(=O)Nc1ccccc1-c1cc2c(-c3cnn(C4CCN(C(C)=O)CC4)c3)cnc(N)c2o1 |  | > 30000 |  |
| CC(=O)N1CCC(n2cc(-c3cnc(N)c4oc(-c5ccccc5C#N)cc34)cn2)CC1 | 1700 | 560 |  |
| CC(=O)N1CCC(n2cc(-c3cnc(N)c4oc(-c5ccccc5C(F)(F)F)cc34)cn2)CC1 |  | > 30000 |  |
| CC(=O)c1ccccc1-c1cc2c(-c3cnn(C4CCN(C(C)=O)CC4)c3)cnc(N)c2o1 | 3100 | 5400 |  |
| CC(=O)N1CCC(n2cc(-c3cnc(N)c4oc(-c5ccccc5C(N)=O)cc34)cn2)CC1 | 4500 | 6000 |  |
| CC(=O)N1CCC(n2cc(-c3cnc(N)c4oc(-c5ccccc5CO)cc34)cn2)CC1 | 1500 | 750 |  |
| COCc1ccccc1-c1cc2c(-c3cnn(C4CCN(C(C)=O)CC4)c3)cnc(N)c2o1 | 1800 | 1400 |  |
| CC(=O)N1CCC(n2cc(-c3cnc(N)c4oc(-c5ccccc5CC#N)cc34)cn2)CC1 | 530 | 250 |  |
| CSc1cccc(-c2cc3c(-c4cnn(C5CCN(C(C)=O)CC5)c4)cnc(N)c3o2)c1 | 1200 | 4300 |  |
| CC(=O)N1CCC(n2cc(-c3cnc(N)c4oc(-c5cccc(S(C)(=O)=O)c5)cc34)cn2)CC1 | 1100 | 4900 |  |
| CC(=O)N1CCC(n2cc(-c3cnc(N)c4oc(-c5cccc(S(N)(=O)=O)c5)cc34)cn2)CC1 |  | 1800 |  |

| SMILES | IC50 [1] [nM] | IC50 [2] [nM] | other results |
| --- | --- | --- | --- |
| CC(=O)N1CCC(n2cc(-c3cnc(N)c4oc(-c5cccc(S(=O)(=O)N(C)C)c5)cc34)cn2)CC1 | 1100 | 1400 |  |
| CC(=O)N1CCC(n2cc(-c3cnc(N)c4oc(-c5cccc([N+](=O)[O-])c5)cc34)cn2)CC1 | 200 | 89 |  |
| CC(=O)N1CCC(n2cc(-c3cnc(N)c4oc(-c5cccc(N)c5)cc34)cn2)CC1 | 510 | 770 |  |
| CC(=O)Nc1cccc(-c2cc3c(-c4cnn(C5CCN(C(C)=O)CC5)c4)cnc(N)c3o2)c1 | 9000 | 3200 |  |
| CC(=O)N1CCC(n2cc(-c3cnc(N)c4oc(-c5cccc(O)c5)cc34)cn2)CC1 | 610 | 61 |  |
| COc1cccc(-c2cc3c(-c4cnn(C5CCN(C(C)=O)CC5)c4)cnc(N)c3o2)c1 | 1200 | 1800 |  |
| COCCOc1cccc(-c2cc3c(-c4cnn(C5CCN(C(C)=O)CC5)c4)cnc(N)c3o2)c1 | 2700 | 3200 |  |
| CC(=O)N1CCC(n2cc(-c3cnc(N)c4oc(-c5cccc(OC(F)(F)F)c5)cc34)cn2)CC1 | 1800 | 3500 |  |
| CC(=O)N1CCC(n2cc(-c3cnc(N)c4oc(-c5ccccc5)cc34)cn2)CC1 | 520 | 1100 |  |
| CC(=O)N1CCC(n2cc(-c3cnc(N)c4oc(-c5cccnc5)cc34)cn2)CC1 |  | 710 |  |
| CC(=O)N1CCC(n2cc(-c3cnc(N)c4oc(C5=CCNCC5)cc34)cn2)CC1 |  | 800 |  |
| CC(=O)N1CCC(n2cc(-c3cnc(N)c4oc(C5=CCCCC5)cc34)cn2)CC1 |  | 460 |  |
| CC(=O)N1CCC(n2cc(-c3cnc(N)c4oc(C5CCCCC5)cc34)cn2)CC1 |  | 650 |  |
| CC(=O)N1CCC(n2cc(-c3cnc(N)c4oc(C5=CCCC5)cc34)cn2)CC1 |  | 1200 |  |
| CC(=O)N1CCC(n2cc(-c3cnc(N)c4oc(C5CCCC5)cc34)cn2)CC1 |  | 2100 |  |
| CC(=O)N1CCC(n2cc(-c3cnc(N)c4oc(-c5ccsc5)cc34)cn2)CC1 |  | 480 |  |
| CC(=O)N1CCC(n2cc(-c3cnc(N)c4oc(-c5cn[nH]c5)cc34)cn2)CC1 | 9100 | 130 |  |
| CC(=O)N1CCC(n2cc(-c3cnc(N)c4oc(-c5cnn(C)c5)cc34)cn2)CC1 |  | 1600 |  |
| CC(=O)N1CCC(n2cc(-c3cnc(N)c4oc(-c5cnco5)cc34)cn2)CC1 |  | 1200 |  |
